Assay results as given in US11524966B1 (Valo Early Discovery, Inc., priority 2017, dated 2022).

Molecular target: T1, USP28 (His-tagged USP28-FL-mammalian) (Homo sapiens, UniProt Q96RU2)
T1 construct: Expression of USP28 (1-1077)-TEV-6*His (pTT5 vector); made in house; host or cells: Expi293f cells (pTT5 vector)
T1 sequence (Q96RU2 1-1077): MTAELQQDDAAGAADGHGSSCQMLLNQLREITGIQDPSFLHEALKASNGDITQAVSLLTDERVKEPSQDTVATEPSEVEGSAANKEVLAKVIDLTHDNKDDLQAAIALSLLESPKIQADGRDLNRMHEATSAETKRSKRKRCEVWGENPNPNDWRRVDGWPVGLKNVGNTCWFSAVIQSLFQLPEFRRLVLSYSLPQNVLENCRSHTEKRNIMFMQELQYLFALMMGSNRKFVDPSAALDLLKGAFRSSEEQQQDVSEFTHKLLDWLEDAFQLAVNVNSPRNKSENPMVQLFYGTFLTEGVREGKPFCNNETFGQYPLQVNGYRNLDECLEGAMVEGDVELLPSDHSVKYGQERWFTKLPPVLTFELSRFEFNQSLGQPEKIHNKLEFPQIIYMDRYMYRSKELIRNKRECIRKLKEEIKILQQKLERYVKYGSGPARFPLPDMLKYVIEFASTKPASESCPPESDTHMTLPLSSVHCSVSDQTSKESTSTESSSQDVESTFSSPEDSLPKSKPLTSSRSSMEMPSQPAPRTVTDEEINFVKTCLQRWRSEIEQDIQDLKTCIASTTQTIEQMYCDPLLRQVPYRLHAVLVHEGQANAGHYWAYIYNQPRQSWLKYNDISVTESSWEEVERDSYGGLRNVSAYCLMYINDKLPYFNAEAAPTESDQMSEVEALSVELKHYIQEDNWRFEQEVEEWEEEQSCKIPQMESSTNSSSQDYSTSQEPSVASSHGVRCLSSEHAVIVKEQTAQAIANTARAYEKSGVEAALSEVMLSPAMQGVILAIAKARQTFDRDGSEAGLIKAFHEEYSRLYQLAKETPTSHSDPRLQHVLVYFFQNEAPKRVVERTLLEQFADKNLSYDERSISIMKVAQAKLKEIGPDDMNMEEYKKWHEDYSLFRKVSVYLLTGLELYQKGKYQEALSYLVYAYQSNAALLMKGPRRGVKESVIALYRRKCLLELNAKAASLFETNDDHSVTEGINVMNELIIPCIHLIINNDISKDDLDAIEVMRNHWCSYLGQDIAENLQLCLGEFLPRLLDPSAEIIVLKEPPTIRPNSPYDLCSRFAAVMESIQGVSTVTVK
Test: Ubiquitin-Rhodamine 110 Assay for USP28 Activity, Example A-1(a)
Assay type: biochemical
Conditions: Ubiquitin-Rhodamine 110 assay, Example A-1(a); read-out: USP28 A-1(a) IC50 range
In short: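 IC50 from 4-parameter logistic fit of percent inhibition versus no-enzyme and DMSO controls; compounds 25 μM to 1.3 nM, 3-fold. Ub-Rh110 cleavage (25 nM, below Km) by […] mammalian-expressed USP28-FL-His ran 45 min at room temperature, stopped with 10 mM citric acid, read ex 485/em 535.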

| Compound | IC50 |
| --- | --- |
| Cc1ccc2c(N)c(C(=O)N[C@H]3COc4cc(N5C[C@@H](N)[C@@]6(CCO6)C5)ccc4C3)sc2n1 [Example 339, 3-amino-N-[(3R)-7-[(4R,8R)-8-amino-1-oxa-6-azaspiro[3.4]octan-6-yl]-3,4-dihydro-2H-1-benzopyran-3-yl]-6-methylthieno[2,3-b]pyridine-2-carboxamide] | 1 to 50 nM |
| COC[C@@H]1CN(c2ccc3c(n2)CC[C@H](NC(=O)c2sc4nc(C)cnc4c2N)C3)C[C@@H]1N [Example 298, 7-amino-N-[(6S)-2-[(3R,4R)-3-amino-4-(methoxymethyl)pyrrolidin-1-yl]-5,6,7,8-tetrahydroquinolin-6-yl]-3-methylthieno[2,3-b]pyrazine-6-carboxamide] | 200 to 2000 nM |
| Cc1ccc2c(N)c(C(=O)N[C@H]3COc4cc(N5CC[C@@H](N)C5)ccc4C3)sc2n1 [Example 288, 3-amino-N-[(3R)-7-[(3R)-3-aminopyrrolidin-1-yl]-3,4-dihydro-2H-1-benzopyran-3-yl]-6-methylthieno[2,3-b]pyridine-2-carboxamide] | 1 to 50 nM |
| COC[C@H]1CN(c2ccc3c(n2)CC[C@H](NC(=O)c2sc4nc(C)ccc4c2N)C3)C[C@@H]1N [Example 327, 3-amino-N-[(6S)-2-[(3R,4S)-3-amino-4-(methoxymethyl)pyrrolidin-1-yl]-5,6,7,8-tetrahydroquinolin-6-yl]-6-methylthieno[2,3-b]pyridine-2-carboxamide] | 50 to 200 nM |
| Cc1ccc2c(N)c(C(=O)N[C@H]3COc4cc(N5C[C@@H](N)[C@H](C(F)F)C5)ccc4C3)sc2n1 [Example 295, 3-amino-N-[(3R)-7-[(3S,4R)-3-amino-4-(difluoromethyl)pyrrolidin-1-yl]-3,4-dihydro-2H-1-benzopyran-3-yl]-6-methylthieno[2,3-b]pyridine-2-carboxamide] | 1 to 50 nM |
| COC[C@H]1C[C@H](N)CN1c1ccc2c(c1)OC[C@H](NC(=O)c1sc3nc(C)ccc3c1N)C2 [Example 261, 3-amino-N-[(3R)-7-[(2R,4S)-4-amino-2-(methoxymethyl)pyrrolidin-1-yl]-3,4-dihydro-2H-1-benzopyran-3-yl]-6-methylthieno[2,3-b]pyridine-2-carboxamide] | 1 to 50 nM |
| Cc1ccc2c(N)c(C(=O)N[C@H]3COc4cc(N5C[C@H](N)[C@]6(CCCO6)C5)ccc4C3)sc2n1 [Example 307, 3-amino-N-[(3R)-7-[(5S,9S)-9-amino-1-oxa-7-azaspiro[4.4]nonan-7-yl]-3,4-dihydro-2H-1-benzopyran-3-yl]-6-methylthieno[2,3-b]pyridine-2-carboxamide] | 1 to 50 nM |
| CN[C@H]1CN(c2ccc3c(n2)CC[C@H](NC(=O)c2sc4nc(C)ccc4c2N)C3)C[C@@H]1OC [Example 311, 3-amino-N-[(6S)-2-[(3S,4S)-3-methoxy-4-(methylamino)pyrrolidin-1-yl]-5,6,7,8-tetrahydroquinolin-6-yl]-6-methylthieno[2,3-b]pyridine-2-carboxamide] | 50 to 200 nM |
| CO[C@]1(C)CN(c2ccc3c(n2)CC[C@H](NC(=O)c2sc4nc(C)cnc4c2N)C3)C[C@H]1N [Example 280, 7-amino-N-[(6S)-2-[(3R,4R)-4-amino-3-methoxy-3-methylpyrrolidin-1-yl]-5,6,7,8-tetrahydroquinolin-6-yl]-3-methylthieno[2,3-b]pyrazine-6-carboxamide] | 200 to 2000 nM |
| CO[C@@H]1CN(c2ccc3c(n2)CC[C@H](NC(=O)c2sc4nc(C)ccc4c2N)C3)C[C@@H]1N [Example 269, 3-amino-N-[(6S)-2-[(3S,4R)-3-amino-4-methoxypyrrolidin-1-yl]-5,6,7,8-tetrahydroquinolin-6-yl]-6-methylthieno[2,3-b]pyridine-2-carboxamide] | 50 to 200 nM |
| Cc1ccc2c(N)c(C(=O)N[C@H]3CCc4nc(N5C[C@H]6NCCC(F)(F)[C@H]6C5)ccc4C3)sc2n1 [Example 329, N-[(6S)-2-[(4aS,7aS)-4,4-difluoro-octahydro-1H-pyrrolo[3,4-b]pyridin-6-yl]-5,6,7,8-tetrahydroquinolin-6-yl]-3-amino-6-methylthieno[2,3-b]pyridine-2-carboxamide] | 50 to 200 nM |
| Cc1ccc2c(N)c(C(=O)N[C@H]3COc4cc(N5C[C@@H](N)[C@@]6(CCCO6)C5)ccc4C3)sc2n1 [Example 308, 3-amino-N-[(3R)-7-[(5R,9R)-9-amino-1-oxa-7-azaspiro[4.4]nonan-7-yl]-3,4-dihydro-2H-1-benzopyran-3-yl]-6-methylthieno[2,3-b]pyridine-2-carboxamide] | 50 to 200 nM |
| COC[C@@]1(C)CN(c2ccc3c(n2)CC[C@H](NC(=O)c2sc4nc(C)ccc4c2N)C3)CC1N (stereo in doubt) [Example 343, 3-amino-N-[(6S)-2-[(3S,4S)-4-amino-3-(methoxymethyl)-3-methylpyrrolidin-1-yl]-5,6,7,8-tetrahydroquinolin-6-yl]-6-methylthieno[2,3-b]pyridine-2-carboxamide] | 50 to 200 nM |
| CO[C@H]1[C@H](N)CN(c2ccc3c(c2)OC[C@H](NC(=O)c2sc4nc(C)ccc4c2N)C3)[C@@H]1C [Example 284, 3-amino-N-[(3R)-7-[(2R,3S,4R)-4-amino-3-methoxy-2-methylpyrrolidin-1-yl]-3,4-dihydro-2H-1-benzopyran-3-yl]-6-methylthieno[2,3-b]pyridine-2-carboxamide] | 1 to 50 nM |
| CN[C@H]1CN(c2ccc3c(n2)CC[C@H](NC(=O)c2sc4nc(C)cc(C)c4c2N)C3)C[C@@H]1OC [Example 312, 3-amino-N-[(6S)-2-[(3S,4S)-3-methoxy-4-(methylamino)pyrrolidin-1-yl]-5,6,7,8-tetrahydroquinolin-6-yl]-4,6-dimethylthieno[2,3-b]pyridine-2-carboxamide] | 50 to 200 nM |
| COC[C@@H]1C[C@H](N)CN1c1ccc2c(c1)OC[C@H](NC(=O)c1sc3nc(C)ccc3c1N)C2 [Example 263, 3-amino-N-[(3R)-7-[(2S,4S)-4-amino-2-(methoxymethyl)pyrrolidin-1-yl]-3,4-dihydro-2H-1-benzopyran-3-yl]-6-methylthieno[2,3-b]pyridine-2-carboxamide] | 1 to 50 nM |
| Cc1ccc2c(N)c(C(=O)N[C@H]3COc4cc(N5CCC6(CNC6)C5)ccc4C3)sc2n1 [Example 306, 3-amino-N-[(3R)-7-{2,6-diazaspiro[3.4]octan-6-yl}-3,4-dihydro-2H-1-benzopyran-3-yl]-6-methylthieno[2,3-b]pyridine-2-carboxamide] | 1 to 50 nM |
| COC[C@@H]1CN(c2nc3c(cc2F)C[C@H](NC(=O)c2sc4nc(C)ccc4c2N)CC3)C[C@@H]1N (single isomer, unassigned) [Example 302] | 50 to 200 nM |
| COC[C@H]1CN(c2cc(F)c3c(c2F)OC[C@H](NC(=O)c2sc4nc(C)cc(C)c4c2N)C3)C[C@H]1N [Example 278, 3-amino-N-[(3R)-7-[(3S,4S)-3-amino-4-(methoxymethyl)pyrrolidin-1-yl]-5,8-difluoro-3,4-dihydro-2H-1-benzopyran-3-yl]-4,6-dimethylthieno[2,3-b]pyridine-2-carboxamide] | 1 to 50 nM |
| Cc1ccc2c(N)c(C(=O)N[C@H]3COc4cc(N5C[C@H](C(F)F)[C@@H](N)C5)ccc4C3)sc2n1 [Example 294, 3-amino-N-[(3R)-7-[(3R,4S)-3-amino-4-(difluoromethyl)pyrrolidin-1-yl]-3,4-dihydro-2H-1-benzopyran-3-yl]-6-methylthieno[2,3-b]pyridine-2-carboxamide] | 1 to 50 nM |
| Cc1ccc2c(N)c(C(=O)N[C@H]3CCc4nc(N5C[C@H](OC(C)C)[C@@H](N)C5)ccc4C3)sc2n1 [Example 320] | 50 to 200 nM |
| Cc1ccc2c(N)c(C(=O)N[C@H]3COc4cc(N5C[C@@H](N)[C@]6(CCCO6)C5)ccc4C3)sc2n1 [Example 309, 3-amino-N-[(3R)-7-[(5S,9R)-9-amino-1-oxa-7-azaspiro[4.4]nonan-7-yl]-3,4-dihydro-2H-1-benzopyran-3-yl]-6-methylthieno[2,3-b]pyridine-2-carboxamide] | 1 to 50 nM |
| Cc1ccc2c(N)c(C(=O)N[C@H]3COc4cc(N5CC6(C5)OCC[C@H]6N)ccc4C3)sc2n1 [Example 337, 3-amino-N-[(3R)-7-[(8R)-8-amino-5-oxa-2-azaspiro[3.4]octan-2-yl]-3,4-dihydro-2H-1-benzopyran-3-yl]-6-methylthieno[2,3-b]pyridine-2-carboxamide] | 1 to 50 nM |
